Results: paper PMC13379085 (PLOS Neglected Tropical Diseases, 2026)
Converted amounts (≈) assume the structure as drawn. Where two headings read alike, the source gives them in different places.

Assays:
[1] = test system: Intracellular L. donovani amastigotes; assay: Image-based Giemsa staining of intracellular L. donovani in bone marrow derived macrophages; type: cell-based, Leishmania donovani; details: 72-hour incubation
Description: (§1) Bone marrow derived macrophages (BMDMs) were isolated from BALB/c mice and cultured as previously described. […] Completely differentiated BMDMs are obtained after 7 days of culture with media change every 2 days. Harvested cells are seeded onto 10 mm glass cover slips at 5 x 10^5 cells/ well of a 24 well plate in DMEM media (without LCM) and allowed to adhere overnight. BMDM cells are then infected overnight with LV82 L. donovani or L. mexicana (NR-51210) at a multiplicity of infection of 10. After infection, cells were washed three times with fresh media to remove extracellular promastigotes and treated with compounds for a 72-hour incubation. BMDM cells were then washed with phosphate buffered saline, fixed with ice-cold methanol, and stained with Giemsa (5% v/v in water). The cover slips with stained cells are mounted onto glass slides and imaged on EVOS XL (100X, Thermo Fisher Scientific). Leishmania amastigotes per 100 macrophages were determined in a blinded manner.

THP-1 macrophages = assay: MTT viability of THP-1 macrophages (host cell cytotoxicity); type: cell-based; details: for CC50: MTT assay
Description: Human monocytes, THP-1 (ATCC, TIB002) were used as host cells for Leishmania infection and to assess drug cytotoxicity. The cells were cultured at 37C, 5% CO2 in RPMI medium (ATCC) supplemented with 10% FBS, 1% Penicillin/Streptomycin and 0.05 mM of β-mercaptoethanol. Cells were used in experiments up to passage 10.
Effect of the compounds on THP-1 cell viability measured using thiazolyl blue tetrazolium bromide which measures cell metabolic activity (MTT). […] Macrophages were then treated with compounds resuspended in RPMI media (1–50 µM) for 24 hours. Media was replaced with thiazolyl blue tetrazolium bromide solubilized in RPMI media (0.5 mg/mL) and incubated at 37°C for 2 hours. The reduced formazan crystals were solubilized with isopropyl alcohol and the absorbance of the resulting solution was measured at 560 nm with a background subtraction at 670 nm. […] This process was repeated with a 72-hr incubation and extended concentration range (1–300 µM) for select compounds.

[2] = test system: Intracellular L. donovani amastigotes; assay: Luminescence-based assay of intracellular L. donovani burden in THP-1 macrophages; type: cell-based, Leishmania donovani; details: for IC50: THP1 macrophages, luminescence assay, 72 hours of treatment, read-out: Intracellular L. donovani amastigotes Lum IC50; for Selectivity 24h LC50/ Lum IC50: host-directed effect vs cytotoxicity in THP-1
Description: Luminescent strains, L. donovani LV82 expressing firefly luciferase (a kind gift from Dr. Abhay Satoskar, Ohio State University) and L. mexicana (NR-51210, ATCC) expressing renilla luciferase were used to evaluate the effect of the compounds in intracellular and extracellular conditions. Wild-type L. donovani LV82 (ATCC) were used for Giemsa staining based experiments. All parasites were cultured at 25°C and 5% CO2 in M199 media (Corning) supplemented with 10% FBS, 1% Penicillin/Streptomycin, and Hemin (0.01 mg/mL), and used in experiments up to passage 15.
THP-1 cells were seeded in a 96 well plate (25,000 cells/well) overnight then differentiated with 150 nM phorbol 12-myristate 13-acetate (PMA) over 72 hours (S1 Fig). […] Briefly, promastigotes of a known cell density were resuspended in RPMI media (with 10% FBS, 1% P/S and 0.05 mM β-mercaptoethanol) and incubated with adhered THP-1 cells over 18 hours. After infection, cells were washed three times with fresh media to remove extracellular promastigotes.
Infected macrophages were then treated with compounds solubilized in DMSO ranging from 0.1-10 µM in concentrations. After 72 hours of treatment, the viability of the amastigotes within macrophages was determined using Promega firefly luminescence assay (Cat E1500) or Pierce Renilla luciferase assay (Cat 16166) for L. donovani and L. mexicana strains, respectively. Briefly, media was removed, and cells were lysed with the assay lysis buffer. The luciferase substrate was then incubated with the lysed cells for 10 min at room temperature and luminescence of live Leishmania was measured in a white opaque 96 well plate using a Biotek plate reader.

[3] = test system: Extracellular L. donovani promastigotes; assay: Resazurin viability assay of extracellular L. donovani promastigotes; type: cell-based, Leishmania donovani; details: for Extracellular L. donovani promastigotes MIC50: 72-hour incubation
Description: (§2) The effect of compounds on extracellular promastigotes was evaluated using a resazurin-based assay as described previously. In short, late log phase Leishmania promastigotes were seeded in a 96 well plate at 1 x 10^5 parasites per well and treated with drugs (0.5 – 200 µM) for 72 hours at 25°C. Ten microliters of Resazurin (0.02% w/v) were added to the treated parasites to achieve a final concentration of 0.002% w/v and incubated for 24 hours. Viability of the promastigotes was assessed by fluorescence (excitation 544 nm, emission 590 nm, SpectraMax M2, Molecular Devices).

L. donovani = details: cited from earlier work
[4] = test system: Intracellular L. mexicana amastigotes; assay: microbe, parasite or virus in culture; type: cell-based, Leishmania mexicana; details: Leishmania mexicana, Macrophage, 72 h, bone marrow derived macrophages, Giemsa staining, 72-hour incubation
Description: as §1

[5] = test system: Extracellular L. mexicana promastigotes; assay: Resazurin viability assay of extracellular L. mexicana promastigotes; type: cell-based, Leishmania mexicana; details: Leishmania mexicana, 72-hour incubation
Description: as §2

LV82 L. donovani = assay: Giemsa staining of intracellular L. donovani in BMDMs from wildtype C57BL/6 or lysozyme knockout mice; type: cell-based, Leishmania donovani; details: 72-hour incubation
From the text: B6.129P2-Lyz2^tm1(cre)Ifo/J mice (stock #004781, herein termed ‘Lys K/O’) were obtained from Jackson Laboratory. This strain has a nuclear-localized Cre recombinase inserted into the first coding ATG of the lysozyme 2 gene (Lyz2) which eliminates endogenous Lyz2 gene function. Wildtype C57BL6/J mice (stock #000664) were obtained as a control.
Bone marrow derived macrophages (BMDMs) were isolated from both mice and cultured as described above in “Image-based Evaluation of Intracellular Anti-Leishmanial Activity”. BMDMs were seeded onto glass cover slips, infected with LV82 L. donovani at a multiplicity of infection of 1:10. Cells were washed to remove extracellular promastigotes and treated with compounds (197, amphotericin B) for a 72-hour incubation. BMDM cells were then washed with phosphate buffered saline, fixed with ice-cold methanol, and stained with Giemsa (5% v/v in water). The cover slips with stained cells are mounted onto glass slides and imaged on EVOS XL (100X, Thermo Fisher Scientific). Leishmania amastigotes per 100 macrophages were determined in a blinded manner.

[6] = 72-hour incubation, read-out: 72 hr viability of THP-1 macrophages LC50
[7] = read-out: 24 hr viability of THP-1 macrophages 24h LC50, 24-hour incubation

## FC(F)(F)c1ccc(-c2ccc(-c3cc(C(F)(F)F)nn3-c3ccc(NC4CCNC4)cc3)cc2)cc1 (racemic) [Compound 25]
[1]
  IC50: 2.5 µM
THP-1 macrophages; [6]
  CC50: 6.3 µM
THP-1 macrophages; [7]
  CC50: 28.9 µM
[2]
  IC50: 0.7 µM
[3]
  Extracellular L. donovani promastigotes MIC50: 2.1 µM

## NCC(=O)Nc1ccc(-n2nc(C(F)(F)F)cc2-c2ccc3c(ccc4ccccc43)c2)cc1 [AR-12, reference compound]
L. donovani
  direct effect on the promastigote: no direct effect
L. donovani; in vitro and in vivo
  parasite burden of L. donovani in infected macrophages: decrease the parasite burden
[4]
  IC50: 1.5 µM
[5]
  MIC50: 15.1 µM (≈ 6.95 µg/mL)

## C[C@@H]1[C@H](O)[C@@H](C)/C=C/C=C/C=C/C=C/C=C/C=C/C=C/[C@H](O[C@@H]2O[C@H](C)[C@@H](O)[C@H](N)[C@@H]2O)C[C@@H]2O[C@](O)(C[C@@H](O)C[C@@H](O)[C@H](O)CC[C@@H](O)C[C@@H](O)CC(=O)O[C@H]1C)C[C@H](O)[C@H]2C(=O)O [Amphotericin B, reference compound]
LV82 L. donovani
  anti-leishmanial activity in WT and Lys K/O BMDMs: retained its anti-leishmanial activity in both WT and Lys K/O BMDMs

## Nc1ccc(CNC2CCN(c3ccc(-n4nc(C(F)(F)F)cc4-c4ccc(-c5ccc(C(F)(F)F)cc5)cc4)cc3)C2)cc1 (stereo not drawn) [Compound 23]
[1]
  IC50: 0.9 µM
THP-1 macrophages; [6]
  CC50: 6.9 µM
THP-1 macrophages; [7]
  CC50: 5.8 µM
[2]
  IC50: 0.4 µM
[3]
  Extracellular L. donovani promastigotes MIC50: 4.0 µM

## CC(C)(C)C#Cc1ccc(-c2cc(C(F)(F)F)nn2-c2ccc(N3CCNCC3)cc2)cc1 [Compound 44]
[1]
  IC50: 1 µM
THP-1 macrophages; [6]
  CC50: 14.5 µM
THP-1 macrophages; [7]
  CC50: 7.4 µM
[2]
  IC50: 0.9 µM
[3]
  Extracellular L. donovani promastigotes MIC50: 1.9 µM

## NCC(=O)Nc1ccc(-n2cc(C(F)(F)F)nc2-c2ccc(-c3ccccc3)cc2)cc1 [Compound 50]
[1]
  IC50: 9.1 µM
THP-1 macrophages; [6]
  CC50: 42.7 µM
THP-1 macrophages; [7]
  CC50: 23.5 µM
[2]
  IC50: 1.5 µM
[3]
  Extracellular L. donovani promastigotes MIC50: 14.6 µM

## N#Cc1cccc(CN2CCC(Nc3ccc(-n4nc(C(F)(F)F)cc4-c4ccc(-c5ccc(C(F)(F)F)cc5)cc4)cc3)C2)c1 (stereo not drawn) [Compound 53]
THP-1 macrophages; 72 hr incubation up to 300µM
  reduction in macrophage viability: Neither compound had any reduction
[2]
  Selectivity 24h LC50/ Lum IC50: >112.6
[5]
  MIC50: > 200 µM
[3]; for 53 strain not specified
  direct effects on extracellular promastigote viability: no direct effects

## O=C(Nc1ccc(-n2cc(C(F)(F)F)nc2-c2ccc(-c3ccccc3)cc2)cc1)C1CCN(Cc2ccccc2)C1 (stereo not drawn) [Compound 86]
[1]
  IC50: 0.6 µM
THP-1 macrophages; [6]
  CC50: 8.2 µM
THP-1 macrophages; [7]
  CC50: 21.9 µM
[2]
  IC50: 1.4 µM
[3]
  Extracellular L. donovani promastigotes MIC50: 3.2 µM

## Oc1ccccc1CN1CCC(Nc2ccc(-n3nc(C(F)(F)F)cc3-c3ccc(-c4ccc(C(F)(F)F)cc4)cc3)cc2)C1 (stereo not drawn) [Compound 91]
[1]
  IC50: 2.4 µM
THP-1 macrophages; [6]
  CC50: 53.4 µM
THP-1 macrophages; [7]
  CC50: > 50 µM
[2]
  IC50: 1.4 µM
[3]
  Extracellular L. donovani promastigotes MIC50: 56.3 µM

## N[C@@H]1CCN(c2ccc(-n3nc(C(F)(F)F)cc3-c3ccc(-c4ccc(C(F)(F)F)cc4)cc3)cc2)C1 [Compound 129]
[1]
  IC50: 0.4 µM
THP-1 macrophages; [6]
  CC50: 6.2 µM
THP-1 macrophages; [7]
  CC50: 6.3 µM
[2]
  IC50: 0.1 µM
[3]
  Extracellular L. donovani promastigotes MIC50: 1.7 µM

## N[C@H]1CCN(c2ccc(-n3nc(C(F)(F)F)cc3-c3ccc(-c4ccc(C(F)(F)F)cc4)cc3)cc2)C1 [Compound 130]
[1]
  IC50: 1.6 µM
THP-1 macrophages; [6]
  CC50: 6.4 µM
THP-1 macrophages; [7]
  CC50: 4.2 µM
[2]
  IC50: 0.2 µM
[3]
  Extracellular L. donovani promastigotes MIC50: 2.1 µM

## NC1CCN(c2ccc(-n3nncc3-c3ccc(C(F)(F)F)cc3)cc2)C1 (stereo not drawn) [Compound 134]
[2]
  Selectivity 24h LC50/ Lum IC50: 42.1
[4]
  IC50: 0.8 µM
[5]
  MIC50: 16.5 µM (≈ 6.16 µg/mL)

## NCC(=O)Nc1ccc(-n2ccnc2-c2ccc(-c3ccc(C(F)(F)F)cc3)cc2)cc1 [Compound 158]
[1]
  IC50: 0.6 µM
THP-1 macrophages; [6]
  CC50: 16.5 µM
THP-1 macrophages; [7]
  CC50: 16 µM
[2]
  IC50: 0.2 µM
[2]; imidazole series
  intracellular activity (primary screen): retaining potent intracellular activity
[3]
  Extracellular L. donovani promastigotes MIC50: 4.6 µM

## Oc1ccc(CNC2CCN(c3ccc(-n4nc(C(F)(F)F)cc4C4CCCCC4)cc3)CC2)cc1 [Compound 319]
[1]
  IC50: 3.4 µM
THP-1 macrophages; [6]
  CC50: 7.2 µM
THP-1 macrophages; [7]
  CC50: 6.4 µM
[2]
  IC50: 0.8 µM
[3]
  Extracellular L. donovani promastigotes MIC50: 0.8 µM

## N#Cc1ccc(CNCC(=O)Nc2ccc(-n3nc(C(F)(F)F)cc3C3CCCCC3)cc2)cc1 [Compound 354]
[2]
  Selectivity 24h LC50/ Lum IC50: 44.9
[4]
  IC50: 3.5 µM
[5]
  MIC50: 30.7 µM (≈ 14.8 µg/mL)
